Source: patent US11974988B2, “Neuroprotective compositions and methods of using the same” (The Board of Supervisors of Louisiana State Univer …, priority 2018, dated 2024)
Values after ≈ are worked out from the molar mass of the structure shown. Values joined by “and” are separate entries in the source; they are usually repeats but may differ in a detail not shown here. Equal values may be shown once. “Also recorded” adds a separate entry of the source. Read-outs that look alike come from different tables or passages of the source.

Legend:
[1] = Max. solubility (Table 1); type: physicochemical
[2] = system: activity-regulated Gln/MeAIB transport (SNAT activity) in hippocampal neurons; experiment: Activity-regulated (spontaneous, 4-AP- or K+-stimulated) [14C]-MeAIB transport in primary hippocampal neurons; type: cell-based, rat; set-up: block of transport activity: dose or concentration left out as unconfirmed; details: for inhibition at 10 µM / IC50: Rattus norvegicus, Hippocampal neuron; for inhibition at 10 µM: read-out: block / inhibition of transport activity; for inhibition of spontaneous activity-regulated 14C-MeAIB transport, in words: screens, 10 μM, GABA 2 mM; for potency to inhibit activity-regulated MeAIB transport relative to a comparator, in words: spontaneous and 4-AP stimulated transport
[3] = system: hippocampal neurons of KA-treated rats; experiment: KA-induced status epilepticus model, hippocampal neurodegeneration (fluoro-jade B, NeuN); type: in vivo, rat; details: for neuroprotection against Glu-induced excitotoxicity in the KA model of TLE: rat, in vivo
Text: (§1) In Aim 3, we treat male and female rats with the ‘best’ SKA-41 derivatives before and after injection of kainic acid (KA). The KA-induced status epilepticus (SE) model is a well-validated model of temporal lobe epilepsy (TLE), the major form of human epilepsy. The model allows studying the different stages between SE and the development of TLE including SE, the acute and latent stages of epileptogenesis and chronic epilepsy. The excitotoxin KA causes excessive Glu release in the hippocampus and selective destruction of inhibitory SOM interneurons in the hilus region of the dentate gyrus (DG) and loss of pyramidal neurons in the CA3 (esp), and also CA1 regions. We scaled up synthesis of SKA-41, 219, and SKA-378. The identity of the compounds was confirmed by ^1H- and ^13C-NMR and high-resolution mass spectrometry. Compound purity is determined by HPLC and no compounds with less then 98% purity were used. […] Rats were processed for immunohistochemistry 3 days after KA administration. As expected, we find that KA treatment induces significant neural damage (green cells) in the CA3 pyramidal neuron subfield and in neurons in the hilus (FIG. 20 Panel A), which are SOM containing GABAergic interneurons (not shown). Fluoro jade B is a high affinity fluorescent marker used for the localization of neuronal degeneration. […] In studies, we have also administered SKA-378 (30 mg/kg) one hr after the onset of stage IV seizures (SE), followed by another injection at 4 hr post SE and then once each day for 3 days. We find that SKA-378 is also neuroprotective under these conditions.
as §1, with “with” for “with the ‘best’”, “(esp)” for “(esp),”, “were” for “was”, “We” for “As expected, we”, “23” for “20”, “Fluoro-jade” for “Fluoro jade”

NaV1.2 = molecular target: T1, NaV1.2 (Mus musculus, UniProt B1AWN6); experiment: NaV currents recorded by whole-cell patch clamp from N1E-115 neuroblastoma cells expressing NaV1.2; type: cell-based
T1 construct: N1E-115 cells that constitutively express NaV1.2; endogenous in cells; host or cells: N1E-115 mouse neuroblastoma cells
T1 sequence (B1AWN6 whole entry): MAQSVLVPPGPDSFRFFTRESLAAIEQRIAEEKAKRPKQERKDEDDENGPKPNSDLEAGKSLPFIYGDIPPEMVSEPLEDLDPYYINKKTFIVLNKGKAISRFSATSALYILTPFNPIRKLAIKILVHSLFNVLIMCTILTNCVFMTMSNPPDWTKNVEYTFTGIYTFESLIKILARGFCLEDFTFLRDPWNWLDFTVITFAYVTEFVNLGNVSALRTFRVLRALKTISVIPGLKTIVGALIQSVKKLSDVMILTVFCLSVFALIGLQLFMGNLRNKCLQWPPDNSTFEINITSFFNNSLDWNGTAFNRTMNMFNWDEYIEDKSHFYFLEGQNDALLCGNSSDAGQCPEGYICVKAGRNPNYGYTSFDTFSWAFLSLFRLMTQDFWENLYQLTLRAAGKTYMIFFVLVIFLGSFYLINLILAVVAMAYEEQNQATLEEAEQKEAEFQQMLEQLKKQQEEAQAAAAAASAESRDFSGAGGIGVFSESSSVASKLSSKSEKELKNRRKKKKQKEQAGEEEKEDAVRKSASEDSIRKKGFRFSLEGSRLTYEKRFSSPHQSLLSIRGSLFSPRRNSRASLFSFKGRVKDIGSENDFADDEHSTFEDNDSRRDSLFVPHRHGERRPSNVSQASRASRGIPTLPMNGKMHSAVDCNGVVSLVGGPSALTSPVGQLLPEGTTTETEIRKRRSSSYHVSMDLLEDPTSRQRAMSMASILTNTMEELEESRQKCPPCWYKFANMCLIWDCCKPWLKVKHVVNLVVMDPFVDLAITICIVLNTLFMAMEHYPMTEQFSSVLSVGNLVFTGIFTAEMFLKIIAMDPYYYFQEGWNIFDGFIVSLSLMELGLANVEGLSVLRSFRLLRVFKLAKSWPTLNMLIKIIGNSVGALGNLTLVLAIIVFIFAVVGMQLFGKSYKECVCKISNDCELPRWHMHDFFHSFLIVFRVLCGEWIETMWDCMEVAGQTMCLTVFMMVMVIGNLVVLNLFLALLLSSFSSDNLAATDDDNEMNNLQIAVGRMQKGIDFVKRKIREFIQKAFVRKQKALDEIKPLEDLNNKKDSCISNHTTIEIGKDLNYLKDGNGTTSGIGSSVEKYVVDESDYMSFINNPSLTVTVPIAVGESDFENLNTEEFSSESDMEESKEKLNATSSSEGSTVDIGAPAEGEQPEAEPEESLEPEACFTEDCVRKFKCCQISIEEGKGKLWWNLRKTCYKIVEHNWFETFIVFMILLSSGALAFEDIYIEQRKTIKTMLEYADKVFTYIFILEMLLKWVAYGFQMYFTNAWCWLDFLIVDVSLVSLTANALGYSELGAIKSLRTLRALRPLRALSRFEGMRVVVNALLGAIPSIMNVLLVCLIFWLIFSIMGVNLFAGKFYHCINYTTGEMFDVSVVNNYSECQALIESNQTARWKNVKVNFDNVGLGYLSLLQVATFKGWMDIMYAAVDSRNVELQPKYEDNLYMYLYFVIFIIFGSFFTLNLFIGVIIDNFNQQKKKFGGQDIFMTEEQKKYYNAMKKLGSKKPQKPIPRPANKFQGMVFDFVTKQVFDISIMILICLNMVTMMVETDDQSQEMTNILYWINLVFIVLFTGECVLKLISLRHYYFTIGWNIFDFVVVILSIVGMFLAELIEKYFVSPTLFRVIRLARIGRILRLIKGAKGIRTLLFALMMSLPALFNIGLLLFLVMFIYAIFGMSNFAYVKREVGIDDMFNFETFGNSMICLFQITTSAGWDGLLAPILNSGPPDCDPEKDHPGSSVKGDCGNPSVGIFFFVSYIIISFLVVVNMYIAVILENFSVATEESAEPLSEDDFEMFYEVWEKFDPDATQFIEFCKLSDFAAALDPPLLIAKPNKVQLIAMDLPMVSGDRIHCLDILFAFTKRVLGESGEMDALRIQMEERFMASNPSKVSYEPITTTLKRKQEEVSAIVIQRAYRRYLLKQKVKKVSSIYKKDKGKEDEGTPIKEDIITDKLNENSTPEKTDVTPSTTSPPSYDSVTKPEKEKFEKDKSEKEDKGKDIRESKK
Text: Cells were held at −80 mV and current elicited by a 0 mV depolarization stepped from a −120 mV conditioning pulse at 0.1 Hz.
Cells transiently (or stably) expressing voltage-gated Na^+ or K^+ channels will be subjected to electrophysiological recording using the whole-cell patch-clamp technique. We will use HEK-293 cell lines stably expressing hNaV1.1, hNaV1.5, hNaV1/7, hNaV1.4, and hKV2.1. […] All cells will be voltage clamped to a holding potential of −90 mV, otherwise specified if held at −120 mV in the case of NaV1.2 use-dependence recording. Na^+ currents will be elicited by 30-ms pulse to 0 mV from −90 mV applied every 10 s. KV2.1 currents will be elicited by 200-ms voltage steps from −90 to 40 mV applied every 10 s.

KCa2 and NaV channels = details: cited from earlier work
[4] = system: small-conductance Ca2+-activated K+ channels; details: read-out: EC50, activation of small-conductance Ca2+-activated K+ channels; cited from earlier work
NaV channels = details: read-out: IC50s, inhibition of NaV channels; cited from earlier work
[5] = system: N- and P/Q-type Ca2+ channels; details: read-out: IC50, block of N- and P/Q-type Ca2+ channels; cited from earlier work
protein Kinase C = details: read-out: IC50, inhibition of protein Kinase C; cited from earlier work
[6] = system: delayed-rectifier K+ channels and two-pore K+ channels; details: cited from earlier work
plasma protein = experiment: Plasma protein binding; type: in vitro ADME, rat
Text: Synthesis of SKA-41, SKA-190, SKA-219 and SKA-220 and will validate plasma protein binding with rat plasma using equilibrium dialysis so that we can validate protein binding.

[7] = system: activity-regulated Gln/MeAIB transport (SNAT activity) in hippocampal neurons; details: read-out: Km of the activity-regulated Gln/MeAIB transport system; cited from earlier work
SNAT1 or SNAT2 = details: cited from earlier work
[8] = 4-AP-stimulated (depolarization) [14C]-MeAIB uptake, DIV16, n in brackets, read-out: SNAT Activity IC50, 4-AP
[9] = spontaneous [14C]-MeAIB uptake, DIV 19, n in brackets, read-out: SNAT Activity IC50, Spont

Question: What does the source list for `Nc1nc(-c2cccc3ccccc23)c(Br)s1` [SKA-219, 5-Bromo-4-(1-naphthalenyl)thiazol-2-amine]?
Answer: solubility [1]: 25 µM (≈ 7.63 µg/mL); block of transport activity [2]: 90%; inhibition at 10 µM [2]: 90%; IC50 ([2]; hippocampal neurons in vitro, 14C-MeAIB 20 μM, read-out: IC50 to inhibit activity-regulated Gln/MeAIB transport): ~2 µM; Active (annotation beside the compound name: active vs inactive derivatives) ([2]; Table 1: SKA-41, and active and inactive derivatives): SKA-219 Active; inhibition of spontaneous activity-regulated 14C-MeAIB transport, in words [2]: blocked spontaneous transport activity; also recorded: inhibited spontaneous transport activity; potency to inhibit activity-regulated MeAIB transport relative to a comparator, in words [2]: as potent as riluzole; neuroprotection against Glu-induced excitotoxicity in the KA model of TLE [3]: neuroprotective; less potent to block NaV channels than activity-regulated Gln/MeAIB transport (NaV1.2): > 10 ×; selectivity to inhibit activity-regulated Gln/MeAIB transport over NaV channels (NaV1.2): > 10 fold and 10 fold and ~15 fold; IC50 (NaV1.2; N1E-115 cells, n=12, read-out: IC50 to inhibit NaV1.2): 30 µM; EC50 (NaV1.2; N1E-115 cells, read-out: EC50 concentration to inhibit NaV1.2): ~30 µM

Question: With `Nc1nc(-c2cccc3ccccc23)c(Cl)s1` [SKA-378, 5-Chloro-4-(naphthalen-1-yl)thiazol-2-amine] as the compound, how does the “potency to inhibit activity-regulated MeAIB transport relative to a comparator, in words” value [2] read?
Answer: as active as SKA-219 and SKA-220, respectively; also recorded: most potent

Question: And the “neuronal degeneration by fluoro-jade B staining in hippocampus” value ([3]; 30 mg/kg 30 min before and 30 min after first KA (5 mg/kg/hr x 2 hr i.p.), 3 days after KA)?
Answer: prevents fluoro-jade B staining in all regions of the hippocampus; also recorded: Neurodegeneration is not observed

Question: And the “neuroprotection when given after onset of SE” value ([3]; 30 mg/kg 1 hr after onset of stage IV seizures, at 4 hr post SE, then once daily for 3 days)?
Answer: neuroprotective

Question: And the “NeuN staining: disorganization and neuron loss in CA3 and hilus” value ([3]; 30 mg/kg pretreatment, 3 days after KA)?
Answer: prevents the disorganization and cell loss

Question: And the “neuroprotection against Glu-induced excitotoxicity in the KA model of TLE” value [3]?
Answer: neuroprotective

Question: Which established ion-channel activity (KCa2 and NaV channels) does the source give for `Nc1nc2ccc(OC(F)(F)F)cc2s1` [riluzole] here?
Answer: mixed NaV blockers and KCa activators

Question: And the EC50 [4]?
Answer: 10 to 200 µM and 10 to 20 µM and > 20 µM

Question: What about the IC50 (NaV channels) of the same compound?
Answer: 1 to 500 µM and 1 to 50 µM

Question: And the IC50 [5]?
Answer: > 40 µM

Question: What about the IC50 (protein Kinase C) of the same compound?
Answer: > 30 µM

Question: And the IC50 [6]?
Answer: > 30 µM

Question: And the “concentration inhibiting delayed-rectifier K+ channels and activating two-pore K+ channels” value [6]?
Answer: 30 to 100 µM

Question: What does the source list for `Nc1nc(-c2ccc3ccccc3c2)c(Br)s1` [drawing 66]?
Answer: fold difference 4-AP IC50 over Spont IC50 [2]: 1.5 x; IC50 [2, 8]: 6.8 µM; IC50 [2, 9]: 4.4 µM; Plasma Protein (plasma protein): > 98%

Question: Which established ion-channel activity (KCa2 and NaV channels) does the source give for `Nc1nc2ccc3ccccc3c2s1` [SKA-45] here?
Answer: KCa2 activators

Question: And the “inhibition of spontaneous activity-regulated 14C-MeAIB transport, in words” value (from here on “inhibition … in words”) [2]?
Answer: active

Question: With `CNC(C)(C)C(=O)O` [MeAIB, α-methylaminoisobutyric acid, reference compound] as the compound, how does the Km [7] read?
Answer: 30 µM

Question: What about the “affinity of SNAT1 or SNAT2 for MeAIB” value (SNAT1 or SNAT2) of the same compound?
Answer: > 0.5 mM

Question: And the “relative affinity for PMA-induced K+-activity-stimulated Gln/MeAIB transport activity” value ([2]; PMA 10 min before KCl 60 mM)?
Answer: ~35 µM

Question: With `Nc1nc2ccc(SC(F)(F)F)cc2s1` [SKA-19, 2-amino-6-trifluoromethylthio-benzothiazole, reference compound] as the compound, how does the established ion-channel activity (KCa2 and NaV channels) read?
Answer: mixed NaV blockers and KCa activators

Question: What about the inhibition at 10 µM [2] of the same compound?
Answer: ~90%

Question: And the “inhibition … in words” value [2]?
Answer: active

Question: With `Nc1nc2ccc(OC(F)(F)Cl)cc2s1` [SKA-11, reference compound] as the compound, how does the established ion-channel activity (KCa2 and NaV channels) read?
Answer: mixed NaV blockers and KCa activators

Question: What about the “inhibition … in words” value [2] of the same compound?
Answer: active

Question: With `Nc1nc2ccc(Cc3ccccc3)cc2s1` [SKA-7] as the compound, how does the established ion-channel activity (KCa2 and NaV channels) read?
Answer: NaV blockers

Question: And the “inhibition … in words” value [2]?
Answer: active

Question: With `Nc1nc(-c2cccc3ccccc23)c(Br)s1` [drawing 65] as the compound, how does the “fold difference 4-AP IC50 over Spont IC50” value [2] read?
Answer: 2.8 x

Question: What about the IC50 [2, 8] of the same compound?
Answer: 5.1 µM

Question: And the IC50 [2, 9]?
Answer: 1.8 µM

Question: What about the IC50 (NaV1.2; read-out: Selectivity IC50 Nav1.2) of the same compound?
Answer: 30 µM

Question: And the “Plasma Protein” value (plasma protein)?
Answer: > 98%
